Measured values published in BindingDB's records for doi:10.1016/s0960-894x(01)00765-x (Bristol Myers Squibb, 2002).

Target: T1, Neuropeptide Y receptor type 1 (Homo sapiens, UniProt P25929)
T1 sequence (P25929 whole entry): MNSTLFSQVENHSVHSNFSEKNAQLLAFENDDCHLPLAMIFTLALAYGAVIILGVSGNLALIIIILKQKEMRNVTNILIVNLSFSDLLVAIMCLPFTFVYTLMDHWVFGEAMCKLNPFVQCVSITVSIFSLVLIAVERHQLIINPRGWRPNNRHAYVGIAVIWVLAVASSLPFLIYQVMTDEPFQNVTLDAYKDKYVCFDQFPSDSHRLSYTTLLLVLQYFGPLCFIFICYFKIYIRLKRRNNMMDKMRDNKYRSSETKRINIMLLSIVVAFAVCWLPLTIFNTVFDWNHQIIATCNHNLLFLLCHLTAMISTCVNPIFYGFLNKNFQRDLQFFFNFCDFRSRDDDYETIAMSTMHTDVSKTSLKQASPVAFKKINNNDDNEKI
Test: ChEBML_143683
Source text: Binding affinity against Neuropeptide Y receptor type 1 using I-PYY as a radioligand in human neuroblastoma SK-N-MC cells

## COC(=O)C1=C(C)N=C(C)C(C(=O)OC)N1c1cccc(NC(=S)NCCCN2CCN(C3CCCCC3)CC2)c1 (configuration not stated) [1-(3-{3-[3-(4-Cyclohexyl-piperazin-1-yl)-propyl]-thioureido}-phenyl)-3,5-dimethyl-1,4-dihydro-pyrazine-2,6-dicarboxylic acid dimethyl ester]
  IC50: > 1000 nM

## COC(=O)C1=C(C)N=C(C)C(C(=O)OC)N1c1cccc(NC(=S)NCCCN2CCC(C(C)(C)C)CC2)c1 (configuration not stated) [1-(3-{3-[3-(4-tert-Butyl-piperidin-1-yl)-propyl]-thioureido}-phenyl)-3,5-dimethyl-1,4-dihydro-pyrazine-2,6-dicarboxylic acid dimethyl ester]
  IC50: > 1000 nM
